Assay results published in PubChem BioAssay (NCI).
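At the GI50, growth is halved. TGI marks complete inhibition of growth.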

Columns and labels:
Test in all cases: DTP human tumour cell line panel, 384-well format
[1] = test system: SW-620 colon
[2] = test system: UACC-257 melanoma
[3] = test system: CAKI-1 renal
[4] = test system: NCI-H226 lung
[5] = test system: HOP-92 NSCLC
[6] = test system: ACHN renal
[7] = test system: MDA-MB-231 breast
[8] = test system: MCF7 breast
[9] = test system: SF-268 CNS
[10] = test system: SNB-19 CNS
[11] = test system: M14 melanoma
[12] = test system: HL-60(TB) leukemia
[13] = test system: NCI-H460 NSCLC
[14] = test system: U251 glioblastoma
[15] = test system: NCI-H322M lung
[16] = test system: T-47D breast
[17] = test system: PC-3 prostate
[18] = test system: SF-295 CNS
[19] = test system: MALME-3M melanoma
[20] = test system: LOX IMVI melanoma
[21] = test system: SF-539 CNS
[22] = test system: KM12 colon
[23] = test system: UO-31 renal
[24] = test system: IGROV1 ovarian
[25] = test system: SK-OV-3 ovarian
[26] = test system: SR leukemia
[27] = test system: SK-MEL-28 melanoma
[28] = test system: SK-MEL-2 melanoma
[29] = test system: NCI-H522 lung
[30] = test system: NCI/ADR-RES ovarian
[31] = test system: HCT-15 colon
[32] = test system: SK-MEL-5 melanoma
[33] = test system: 786-0 renal
[34] = test system: SN12C renal
[35] = test system: OVCAR-3 ovarian
[36] = test system: K-562 leukemia
[37] = test system: BT-549 breast
[38] = test system: MDA-MB-435 melanoma
[39] = test system: A549 NSCLC
[40] = test system: RPMI-8226 leukemia
[41] = test system: OVCAR-4 ovarian
[42] = test system: DU-145 prostate
[43] = test system: MOLT-4 leukemia
[44] = test system: OVCAR-8 ovarian
[45] = test system: HOP-62 NSCLC
[46] = test system: OVCAR-5 ovarian
[47] = test system: CCRF-CEM leukemia
[48] = test system: TK-10 renal
[49] = test system: UACC-62 melanoma
[50] = test system: HCT-116 colon
[51] = test system: MDA-MB-468 breast
[52] = test system: HCC-2998 colon
[53] = test system: HT29 colon
[54] = test system: COLO 205 colon
[55] = test system: NCI-H23 lung
[56] = test system: RXF 393 renal
[57] = test system: A498 renal
[58] = test system: EKVX NSCLC
[59] = test system: SNB-75 CNS
[60] = test system: HS 578T breast

SMILES: NCCCC[C@@H]1NC(=O)[C@H](CC(=O)O)NC(=O)CNC(=O)[C@H](CCCN=C(N)N)NC(=O)[C@@H](N)CSSC[C@@H](C(=O)O)NC(=O)[C@H](CC(=O)O)NC(=O)[C@@H]2CCCN2C(=O)CNC1=O
- GI50 [1]: > 100 µM
- TGI [1]: > 100 µM
- GI50 [2]: > 100 µM
- TGI [2]: > 100 µM
- GI50 [3]: > 100 µM
- TGI [3]: > 100 µM
- GI50 [4]: > 100 µM
- TGI [4]: > 100 µM
- GI50 [5]: > 100 µM
- TGI [5]: > 100 µM
- GI50 [6]: > 100 µM
- TGI [6]: > 100 µM
- GI50 [7]: > 100 µM
- TGI [7]: > 100 µM
- GI50 [8]: > 100 µM
- TGI [8]: > 100 µM
- GI50 [9]: > 100 µM
- TGI [9]: > 100 µM
- GI50 [10]: > 100 µM
- TGI [10]: > 100 µM
- GI50 [11]: > 100 µM
- TGI [11]: > 100 µM
- GI50 [12]: > 100 µM
- TGI [12]: > 100 µM
- GI50 [13]: > 100 µM
- TGI [13]: > 100 µM
- GI50 [14]: > 100 µM
- TGI [14]: > 100 µM
- GI50 [15]: > 100 µM
- TGI [15]: > 100 µM
- GI50 [16]: > 100 µM
- TGI [16]: > 100 µM
- GI50 [17]: > 100 µM
- TGI [17]: > 100 µM
- GI50 [18]: > 100 µM
- TGI [18]: > 100 µM
- GI50 [19]: 93.7 µM
- TGI [19]: > 100 µM
- GI50 [20]: > 100 µM
- TGI [20]: > 100 µM
- GI50 [21]: > 100 µM
- TGI [21]: > 100 µM
- GI50 [22]: > 100 µM
- TGI [22]: > 100 µM
- GI50 [23]: > 100 µM
- TGI [23]: > 100 µM
- GI50 [24]: > 100 µM
- TGI [24]: > 100 µM
- GI50 [25]: > 100 µM
- TGI [25]: > 100 µM
- GI50 [26]: > 100 µM
- TGI [26]: > 100 µM
- GI50 [27]: > 100 µM
- TGI [27]: > 100 µM
- GI50 [28]: > 100 µM
- TGI [28]: > 100 µM
- GI50 [29]: > 100 µM
- TGI [29]: > 100 µM
- GI50 [30]: > 100 µM
- TGI [30]: > 100 µM
- GI50 [31]: > 100 µM
- TGI [31]: > 100 µM
- GI50 [32]: > 100 µM
- TGI [32]: > 100 µM
- GI50 [33]: > 100 µM
- TGI [33]: > 100 µM
- GI50 [34]: > 100 µM
- TGI [34]: > 100 µM
- GI50 [35]: > 100 µM
- TGI [35]: > 100 µM
- GI50 [36]: > 100 µM
- TGI [36]: > 100 µM
- GI50 [37]: > 100 µM
- TGI [37]: > 100 µM
- GI50 [38]: > 100 µM
- TGI [38]: > 100 µM
- GI50 [39]: > 100 µM
- TGI [39]: > 100 µM
- GI50 [40]: > 100 µM
- TGI [40]: > 100 µM
- GI50 [41]: > 100 µM
- TGI [41]: > 100 µM
- GI50 [42]: > 100 µM
- TGI [42]: > 100 µM
- GI50 [43]: > 100 µM
- TGI [43]: > 100 µM
- GI50 [44]: > 100 µM
- TGI [44]: > 100 µM
- GI50 [45]: > 100 µM
- TGI [45]: > 100 µM
- GI50 [46]: > 100 µM
- TGI [46]: > 100 µM
- GI50 [47]: > 100 µM
- TGI [47]: > 100 µM
- GI50 [48]: > 100 µM
- TGI [48]: > 100 µM
- GI50 [49]: 80 µM
- TGI [49]: > 100 µM
- GI50 [50]: > 100 µM
- TGI [50]: > 100 µM
- GI50 [51]: > 100 µM
- TGI [51]: > 100 µM
- GI50 [52]: > 100 µM
- TGI [52]: > 100 µM
- GI50 [53]: > 100 µM
- TGI [53]: > 100 µM
- GI50 [54]: > 100 µM
- TGI [54]: > 100 µM
- GI50 [55]: > 100 µM
- TGI [55]: > 100 µM
- GI50 [56]: > 100 µM
- TGI [56]: > 100 µM
- GI50 [57]: > 100 µM
- TGI [57]: > 100 µM

SMILES: COc1ncc(Nc2ncc([C@@H](C)N3CCN(S(C)(=O)=O)CC3)cc2-c2nc(C)nc(N)n2)cc1F
- GI50 [1]: 3.8 µM
- TGI [1]: > 100 µM
- GI50 [2]: 0.488 µM
- TGI [2]: 60.5 µM
- GI50 [3]: 0.023 µM
- TGI [3]: 18.1 µM
- GI50 [4]: 1.3 µM
- TGI [4]: 13.7 µM
- GI50 [5]: 0.0246 µM
- TGI [5]: 1.22 µM
- GI50 [6]: 0.1 µM
- TGI [6]: > 100 µM
- GI50 [7]: 2.27 µM
- TGI [7]: > 100 µM
- GI50 [8]: 0.0407 µM
- TGI [8]: 27.6 µM
- GI50 [9]: < 0.01 µM
- TGI [9]: 0.0889 µM
- GI50 [10]: 4.73 µM
- TGI [10]: > 100 µM
- GI50 [58]: 0.0733 µM
- TGI [58]: 5.23 µM
- GI50 [11]: 1.28 µM
- TGI [11]: > 100 µM
- GI50 [13]: 0.0711 µM
- TGI [13]: > 100 µM
- GI50 [59]: < 0.01 µM
- TGI [59]: 0.0481 µM
- GI50 [14]: 1.01 µM
- TGI [14]: > 100 µM
- GI50 [15]: 0.367 µM
- TGI [15]: 27.9 µM
- GI50 [16]: < 0.01 µM
- TGI [16]: 0.0426 µM
- GI50 [17]: 0.0336 µM
- TGI [17]: 18.6 µM
- GI50 [18]: 0.0498 µM
- TGI [18]: 2.1 µM
- GI50 [19]: 1.04 µM
- TGI [19]: > 100 µM
- GI50 [20]: 0.552 µM
- TGI [20]: 5.65 µM
- GI50 [21]: 0.179 µM
- TGI [21]: 4.15 µM
- GI50 [22]: 1.36 µM
- TGI [22]: > 100 µM
- GI50 [23]: 0.187 µM
- TGI [23]: 7.21 µM
- GI50 [24]: < 0.01 µM
- TGI [24]: 0.0433 µM
- GI50 [25]: 0.0965 µM
- TGI [25]: 10.4 µM
- GI50 [27]: 0.0896 µM
- TGI [27]: 6.79 µM
- GI50 [29]: 1.63 µM
- TGI [29]: 19.5 µM
- GI50 [30]: 3.39 µM
- TGI [30]: > 100 µM
- GI50 [31]: 0.465 µM
- TGI [31]: > 100 µM
- GI50 [32]: 1.03 µM
- TGI [32]: 11.9 µM
- GI50 [33]: 0.076 µM
- TGI [33]: 3.77 µM
- GI50 [34]: 0.0317 µM
- TGI [34]: 8.95 µM
- GI50 [35]: 0.061 µM
- TGI [35]: 3.1 µM
- GI50 [36]: 4.54 µM
- TGI [36]: > 100 µM
- GI50 [37]: 0.0533 µM
- TGI [37]: 6.33 µM
- GI50 [38]: 2.31 µM
- TGI [38]: > 100 µM
- GI50 [39]: 0.138 µM
- TGI [39]: 11.9 µM
- GI50 [40]: 2.8 µM
- TGI [40]: 8.44 µM
- GI50 [41]: 2.25 µM
- TGI [41]: > 100 µM
- GI50 [42]: 0.651 µM
- TGI [42]: > 100 µM
- GI50 [43]: 0.015 µM
- TGI [43]: 0.12 µM
- GI50 [60]: 0.017 µM
- TGI [60]: 0.333 µM
- GI50 [44]: 1.44 µM
- TGI [44]: > 100 µM
- GI50 [45]: 1.94 µM
- TGI [45]: 83.7 µM
- GI50 [46]: 0.16 µM
- TGI [46]: 16.8 µM
- GI50 [47]: 0.0891 µM
- TGI [47]: 1.55 µM
- GI50 [48]: 0.294 µM
- TGI [48]: 7.94 µM
- GI50 [49]: 0.0304 µM
- TGI [49]: 1.45 µM
- GI50 [50]: 2.79 µM
- TGI [50]: > 100 µM
- GI50 [51]: < 0.01 µM
- TGI [51]: 0.16 µM
- GI50 [52]: 1.23 µM
- TGI [52]: 38.2 µM
- GI50 [53]: 0.139 µM
- TGI [53]: > 100 µM
- GI50 [54]: 0.275 µM
- TGI [54]: 67.8 µM
- GI50 [55]: 1.95 µM
- TGI [55]: > 100 µM
- GI50 [56]: 0.0125 µM
- TGI [56]: 0.0763 µM
- GI50 [57]: 0.0322 µM
- TGI [57]: 0.337 µM
